Assay results published in US12037344B2, “NLRP3 modulators” (INNATE TUMOR IMMUNITY, INC., priority 2018, dated 2024).
Where a name gives a salt, the structure may show the parent alone. Read-outs that look alike come from different tables or passages of the source.

What was measured:
[1] = system: THP-1 cells; test: Measurement of IL-1β production, hTRF protocol (second alternative procedure), THP-1 cells; format: cell-based, human; conditions: human cells, read-out: NLRP3 hILIB EC50
Outline: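 Compounds, dilution series starting at a final 10 μM, were incubated 2 hours at 37° C with PMA-differentiated THP-1 cells (50 ng/ml overnight; 50,000 cells/well, 2% FBS RPMI). Released IL-1β quantified in supernatant by hTRF kit with 1:40 antibody dilution, 4° C overnight, 665/615 nm ratio.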

[2] = molecular target: T1, TLR7 (Homo sapiens, UniProt Q9NYK1); test: In vitro human TLR7 binding reporter assay (HEK-Blue, NF-kB/AP1-inducible SEAP); format: cell-based; conditions: activity range, read-out: TLR7 Agonist EC50
T1 construct: human HEK-Blue cells co-expressing a TLR7 or TLR8 gene
T1 sequence (Q9NYK1 27-1049): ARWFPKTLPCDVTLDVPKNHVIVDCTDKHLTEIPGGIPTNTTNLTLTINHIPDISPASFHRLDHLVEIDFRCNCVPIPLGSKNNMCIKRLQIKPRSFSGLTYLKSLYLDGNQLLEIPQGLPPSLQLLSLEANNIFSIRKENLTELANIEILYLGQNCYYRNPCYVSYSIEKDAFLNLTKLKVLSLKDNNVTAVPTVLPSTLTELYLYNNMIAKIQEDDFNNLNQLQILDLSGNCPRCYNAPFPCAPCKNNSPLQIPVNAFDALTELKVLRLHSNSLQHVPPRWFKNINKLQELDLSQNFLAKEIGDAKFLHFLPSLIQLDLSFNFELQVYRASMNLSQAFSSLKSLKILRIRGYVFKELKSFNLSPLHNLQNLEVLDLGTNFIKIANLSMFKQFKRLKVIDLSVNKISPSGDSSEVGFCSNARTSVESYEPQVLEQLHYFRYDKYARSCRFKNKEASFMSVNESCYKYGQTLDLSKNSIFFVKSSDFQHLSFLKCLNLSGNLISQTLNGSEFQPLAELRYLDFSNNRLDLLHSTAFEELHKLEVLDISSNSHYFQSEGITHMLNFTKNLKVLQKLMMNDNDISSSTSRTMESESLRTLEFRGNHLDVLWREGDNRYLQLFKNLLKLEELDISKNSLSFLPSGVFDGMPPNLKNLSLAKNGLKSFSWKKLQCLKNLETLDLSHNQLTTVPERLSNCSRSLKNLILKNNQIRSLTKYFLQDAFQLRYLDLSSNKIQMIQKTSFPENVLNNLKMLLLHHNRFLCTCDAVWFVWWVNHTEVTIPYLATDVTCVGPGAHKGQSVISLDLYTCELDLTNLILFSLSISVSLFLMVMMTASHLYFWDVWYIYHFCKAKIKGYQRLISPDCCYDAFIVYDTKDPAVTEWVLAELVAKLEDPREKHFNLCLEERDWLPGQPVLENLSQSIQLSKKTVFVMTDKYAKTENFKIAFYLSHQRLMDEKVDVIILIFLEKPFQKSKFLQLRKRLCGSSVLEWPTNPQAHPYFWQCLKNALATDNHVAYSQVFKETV
Outline: (§1)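 HEK-Blue cells expressing human TLR7 or TLR8 with NF-kB/AP1-inducible SEAP reporter, plated 24 h, then compound-treated 18 h at 37° C, 5% CO2. EC50 normalized to 100% Ymax set by 50 μM reference standard.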

[3] = molecular target: T2, TLR8 (Homo sapiens, UniProt Q9NR97); test: In vitro human TLR8 binding reporter assay (HEK-Blue, NF-kB/AP1-inducible SEAP); format: cell-based; conditions: activity range, read-out: TLR8 Agonist EC50
T2 construct: human HEK-Blue cells co-expressing a TLR7 or TLR8 gene
T2 sequence (Q9NR97 27-1041): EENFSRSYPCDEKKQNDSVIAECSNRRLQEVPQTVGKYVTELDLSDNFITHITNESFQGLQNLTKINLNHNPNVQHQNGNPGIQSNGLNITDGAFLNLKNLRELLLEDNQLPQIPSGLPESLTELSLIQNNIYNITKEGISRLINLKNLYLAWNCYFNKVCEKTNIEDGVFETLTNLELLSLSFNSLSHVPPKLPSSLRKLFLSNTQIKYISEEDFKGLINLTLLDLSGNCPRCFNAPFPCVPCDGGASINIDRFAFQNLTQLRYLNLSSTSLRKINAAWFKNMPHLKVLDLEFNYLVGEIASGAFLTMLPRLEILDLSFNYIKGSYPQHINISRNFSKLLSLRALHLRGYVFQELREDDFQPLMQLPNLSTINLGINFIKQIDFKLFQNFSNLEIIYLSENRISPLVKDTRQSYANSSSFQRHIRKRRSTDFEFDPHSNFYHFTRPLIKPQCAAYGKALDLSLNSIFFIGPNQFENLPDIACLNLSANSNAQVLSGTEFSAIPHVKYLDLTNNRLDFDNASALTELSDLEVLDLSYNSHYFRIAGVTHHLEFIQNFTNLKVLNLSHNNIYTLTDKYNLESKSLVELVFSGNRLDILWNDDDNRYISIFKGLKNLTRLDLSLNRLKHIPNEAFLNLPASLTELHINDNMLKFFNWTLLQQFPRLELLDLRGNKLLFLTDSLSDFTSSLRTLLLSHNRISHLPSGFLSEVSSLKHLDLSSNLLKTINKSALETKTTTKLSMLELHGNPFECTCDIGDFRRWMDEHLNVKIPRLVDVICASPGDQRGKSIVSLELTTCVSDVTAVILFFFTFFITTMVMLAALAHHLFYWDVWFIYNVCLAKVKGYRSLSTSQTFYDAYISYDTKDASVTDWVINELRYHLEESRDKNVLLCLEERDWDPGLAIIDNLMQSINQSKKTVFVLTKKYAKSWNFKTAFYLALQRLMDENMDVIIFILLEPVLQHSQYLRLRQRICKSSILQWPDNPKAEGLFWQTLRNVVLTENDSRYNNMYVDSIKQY
Outline: as §1

[4] = Homo sapiens, THP-1, IL-1β production

Row | Compound | EC50 [1, 4] | EC50 [2] | EC50 [3] | EC50 ([1]; IL-1β production)
1 | Nc1nc2cc(-c3cc[nH]n3)c(F)cc2c2nn(CCO)cc12 [Example 404] | 0.74 µM | > 100 µM | > 100 µM | –
2 | C[C@H](O)Cn1cc2c(N)nc3cc(-c4cc[nH]n4)c(F)cc3c2n1 [Example 405] | 0.69 µM | > 100 µM | > 100 µM | –
3 | COCCn1cc2c(N)nc3cc(-c4cc[nH]n4)c(F)cc3c2n1 [Example 406] | 0.45 µM | > 100 µM | > 100 µM | –
4 | CC(C)(CO)n1cc2c(N)nc3cc(-c4cc[nH]n4)ccc3c2n1 [Example 407, 2-(4-amino-7-(1H-pyrazol-3-yl)-2H-pyrazolo[4,3-c]quinolin-2-yl)-2-methylpropan-1-ol, TFA] | – | > 100 µM | > 100 µM | 0.5 µM
5 | Nc1nc2cc(-c3cc[nH]n3)ccc2c2nn(Cc3cc(CO)no3)cc12 [Example 408] | 1.94 µM | > 100 µM | > 100 µM | –
6 | Nc1nc2cc(-c3cc[nH]n3)ccc2c2nn(Cc3ccnc(CO)c3)cc12 [Example 409] | 1.47 µM | > 100 µM | > 100 µM | –
7 | CC(C)(CCO)n1cc2c(N)nc3cc(-c4cc[nH]n4)ccc3c2n1 [Example 410, 3-(4-amino-7-(1H-pyrazol-3-yl)-2H-pyrazolo[4,3-c]quinolin-2-yl)-3-methylbutan-1-ol, TFA] | 0.33 µM | > 100 µM | > 100 µM | –
8 | Nc1nc2cc(-c3ccn[nH]3)ccc2c2[nH]c(CN3CCOCC3)cc12 [Example 411, 2-[(morpholin-4-yl)methyl]-7-(1H-pyrazol-5-yl)-1H-pyrrolo[3,2-c]quinolin-4-amine] | 0.64 µM | > 100 µM | > 100 µM | –
9 | Nc1nc2cc(-c3cc[nH]n3)ccc2c2[nH]c(CNC(=O)C3CCCO3)cc12 (stereo not drawn) [Example 412] | 1.87 µM | > 100 µM | > 100 µM | –

Results, then the compound that gave them:

Row | EC50 [1, 4] | EC50 [2] | EC50 [3] | EC50 ([1]; IL-1β production) | Compound
10 | 0.07 µM | > 100 µM | > 100 µM | – | N#CCCn1cc2c(N)nc3cc(-c4cc[nH]n4)ccc3c2n1 [Example 395]
11 | 0.65 µM | > 100 µM | > 100 µM | – | Nc1nc2cc(-c3cc[nH]n3)ccc2c2nn(CCO)cc12 [Example 396]
12 | 0.34 µM | 1 to 20 µM | > 100 µM | – | Nc1nc2cc(-c3cc[nH]n3)ccc2c2cn(CCOC(F)F)nc12 [Example 397]
13 | 1.55 µM | > 100 µM | > 100 µM | – | Nc1nc2cc(-c3cc[nH]n3)ccc2c2cn(C[C@@H](O)CO)nc12 [Example 398]
14 | 0.23 µM | > 100 µM | > 100 µM | – | C[C@H](CO)Cn1cc2c(n1)c(N)nc1cc(-c3cc[nH]n3)ccc12 [Example 399]
15 | 1.22 µM | > 100 µM | > 100 µM | – | CC[C@@H](O)Cn1ncc2c(N)nc3cc(-c4cc[nH]n4)ccc3c21 [Example 400]
16 | 2.66 µM | > 100 µM | > 100 µM | – | C[C@H](O)Cn1ncc2c(N)nc3cc(-c4cc[nH]n4)ccc3c21 [Example 401]
17 | 3.78 µM | > 100 µM | > 100 µM | – | Nc1nc2cc(-c3cc[nH]n3)c(F)cc2c2c1cnn2CCO [Example 403]
